Data: patent US20230265151A1, “GIP/GLP1 CO-AGONIST COMPOUNDS” (priority 2020, published 2023)
Where two headings read alike, the source gives them in different places. *1 amine or outer side, *2 acyl side, *3 side chain or, on linkers, in order; H or OH if unused. Where a SMILES comes first, the peptide text is derived from it. Side-chain parts run from the residue outwards. [ ]: non-standard residue; d: D form. The star is where a group is joined. αMePhe(2-F) = C[C@](N)(Cc1ccccc1F)C(=O)O; γGlu = O=C(O)[C@H](CCC(=O)[*:2])N[*:1]; αMeY = C[C@](N)(Cc1ccc(O)cc1)C(=O)O; αMeF = C[C@](N)(Cc1ccccc1)C(=O)O; 4Pal = N[C@@H](Cc1ccncc1)C(=O)O; αMeL = CC(C)C[C@](C)(N)C(=O)O; Lauroyl = CCCCCCCCCCCC(=O)*; Orn = NCCC[C@H](N)C(=O)O; AEEA = NCCOCCOCC(=O)O; Aib = CC(C)(N)C(=O)O

Experiments:
Assay type in all cases: cell-based
[1] = molecular target: T1, hGIPR (Homo sapiens, UniProt P48546); test: Functional cAMP formation (HTRF) in HEK-293 clonal cells expressing hGIPR, 0.1% bovine casein, without or with 1.0% human serum albumin; conditions: 37° C.; for Emax: HEK293, cAMP, percent of maximal response to GIP(1-42)NH2, read-out: hGIPR Emax, % ± SEM; for EC50: cAMP, read-out: hGIPR EC50, nM (SEM, n)
T1 construct: expressed in transfected cells
T1 sequence (P48546 22-466): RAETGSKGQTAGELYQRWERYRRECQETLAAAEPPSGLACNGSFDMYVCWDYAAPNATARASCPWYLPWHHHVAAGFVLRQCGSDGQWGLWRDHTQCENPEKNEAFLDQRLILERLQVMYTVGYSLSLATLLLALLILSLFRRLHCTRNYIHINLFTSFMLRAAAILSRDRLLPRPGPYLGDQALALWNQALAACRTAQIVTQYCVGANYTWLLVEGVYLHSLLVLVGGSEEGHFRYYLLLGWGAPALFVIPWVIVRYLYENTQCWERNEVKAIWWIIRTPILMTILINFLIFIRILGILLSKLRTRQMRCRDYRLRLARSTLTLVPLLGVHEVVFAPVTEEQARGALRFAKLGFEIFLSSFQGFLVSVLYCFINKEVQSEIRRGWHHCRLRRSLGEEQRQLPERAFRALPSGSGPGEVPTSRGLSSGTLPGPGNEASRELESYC
Summary of the method: (§1)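 Cells were stimulated with peptide for 30 min at 37° C, then intracellular cAMP was measured by competitive HTRF (665/620 nm ratio) and converted to nM using a cAMP standard curve. Relative EC50 and Emax came from four-parameter logistic fits of percent maximal response against peptide concentration.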

[2] = molecular target: T2, hGCGR (Homo sapiens, UniProt P47871); test: Functional cAMP formation (HTRF) in HEK-293 clonal cells expressing hGCGR, 0.1% bovine casein, without or with 1.0% human serum albumin; conditions: cAMP, 37° C., read-out: hGCGR EC50, nM (SEM, n)
T2 construct: expressed in transfected cells
Summary of the method: as §1

[3] = molecular target: hGLP-1R (Homo sapiens, UniProt P43220); test: Functional cAMP formation (HTRF) in HEK-293 clonal cells expressing hGLP-1R, 0.1% bovine casein, without or with 1.0% human serum albumin; parameters: expressed in transfected cells; conditions: 37° C.; for Emax: HEK293, cAMP, percent of maximal response to GLP-1(7-36)NH2, read-out: hGLP-1R Emax, % ± SEM; for EC50: cAMP, read-out: hGLP-1R EC50, nM (SEM, n)
Summary of the method: as §1

[4] = 0.1% bovine casein and 1.0% human serum albumin
[5] = 0.1% bovine casein (no human serum albumin), geometric mean
[6] = 0.1% bovine casein and 1.0% human serum albumin, geometric mean (SEM, n)
[7] = 0.1% bovine casein, arithmetic mean

T2 sequence (P47871 26-477): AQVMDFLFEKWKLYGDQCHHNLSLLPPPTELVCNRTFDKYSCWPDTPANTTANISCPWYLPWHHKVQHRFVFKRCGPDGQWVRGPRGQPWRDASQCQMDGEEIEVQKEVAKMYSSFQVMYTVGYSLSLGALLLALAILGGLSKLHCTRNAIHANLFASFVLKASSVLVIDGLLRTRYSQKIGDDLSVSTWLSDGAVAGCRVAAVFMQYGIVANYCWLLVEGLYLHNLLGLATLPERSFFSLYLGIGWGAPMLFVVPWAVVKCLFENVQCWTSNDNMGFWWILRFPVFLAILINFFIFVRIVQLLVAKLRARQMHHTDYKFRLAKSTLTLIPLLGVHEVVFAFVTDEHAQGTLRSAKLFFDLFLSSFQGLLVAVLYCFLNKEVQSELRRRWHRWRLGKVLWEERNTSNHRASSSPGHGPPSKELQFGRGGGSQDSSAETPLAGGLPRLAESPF
Sequence of hGLP-1R (P43220 24-463): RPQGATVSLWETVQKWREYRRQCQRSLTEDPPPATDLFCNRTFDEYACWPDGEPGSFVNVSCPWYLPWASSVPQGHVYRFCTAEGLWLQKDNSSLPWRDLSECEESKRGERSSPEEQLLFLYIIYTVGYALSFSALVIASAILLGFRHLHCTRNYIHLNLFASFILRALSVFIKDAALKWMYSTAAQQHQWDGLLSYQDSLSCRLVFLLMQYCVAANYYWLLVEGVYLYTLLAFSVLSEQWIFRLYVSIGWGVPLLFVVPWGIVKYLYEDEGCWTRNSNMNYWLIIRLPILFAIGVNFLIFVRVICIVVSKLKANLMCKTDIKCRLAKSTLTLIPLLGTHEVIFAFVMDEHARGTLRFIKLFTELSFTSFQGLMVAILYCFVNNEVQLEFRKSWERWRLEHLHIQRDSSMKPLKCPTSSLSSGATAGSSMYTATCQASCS

Row | Compound | Emax [1, 4] | EC50 [1, 5] | EC50 [1, 6] | EC50 [2, 5] | EC50 [2, 6] | Emax [3, 4] | Emax [3, 7] | EC50 [3, 5] | Emax [1, 7] | EC50 [3, 6]
1 | CCCCCCCCCCCC(=O)N[C@@H](CCC(=O)NCCOCCOCC(=O)NCCOCCOCC(=O)NCCCC[C@H](NC(=O)[C@H](CCCN)NC(=O)[C@H](CC(=O)O)NC(=O)[C@H](CC(C)C)NC(=O)[C@](C)(CC(C)C)NC(=O)[C@@H](NC(=O)C(C)(C)NC(=O)[C@H](Cc1ccncc1)NC(=O)[C@H](CC(=O)O)NC(=O)[C@H](CO)NC(=O)[C@@H](NC(=O)[C@](C)(Cc1ccccc1F)NC(=O)[C@@H](NC(=O)CNC(=O)[C@H](CCC(=O)O)NC(=O)C(C)(C)NC(=O)[C@@H](N)Cc1ccc(O)cc1)[C@@H](C)O)[C@@H](C)O)[C@@H](C)CC)C(=O)N[C@@H](C)C(=O)N[C@@H](CCC(N)=O)C(=O)NC(C)(C)C(=O)N[C@@H](CCCCNC(=O)COCCOCCNC(=O)COCCOCCNC(=O)CC[C@H](NC(=O)CCCCCCCCCCC)C(=O)O)C(=O)N[C@@](C)(Cc1ccccc1)C(=O)N[C@H](C(=O)N[C@H](CCC(=O)O)C(=O)N[C@@](C)(Cc1ccc(O)cc1)C(=O)N[C@@H](CC(C)C)C(=O)N[C@H](C(=O)N[C@@H](CCC(=O)O)C(=O)NCC(=O)NCC(=O)N1CCC[C@H]1C(=O)N[C@@H](CO)C(=O)N[C@@H](CO)C(=O)NCC(=O)N[C@@H](C)C(=O)N1CCC[C@H]1C(=O)N1CCC[C@H]1C(=O)N1CCC[C@H]1C(=O)N[C@@H](CO)C(N)=O)[C@@H](C)CC)[C@@H](C)CC)C(=O)O [Example 430] (H-Y[Aib]EGT[αMePhe(2-F)]TSD[4Pal][Aib]I[αMeL]LD[Orn]K([AEEA-AEEA-γGlu-Lauroyl])AQ[Aib]K([AEEA-AEEA-γGlu-Lauroyl])[αMeF]I[dE][αMeY]LIEGGPSSGAPPPS-NH2) | 91.5% | 0.0175 nM | 1.09 nM | > 9950 nM | > 9950 nM | 88.5% | 93.1% | 0.342 nM | – | –
2 | CCCCCCCCCCCC(=O)N[C@@H](CCC(=O)NCCOCCOCC(=O)NCCOCCOCC(=O)NCCCC[C@H](NC(=O)[C@H](CO)NC(=O)[C@@H]1CCCN1C(=O)[C@@H]1CCCN1C(=O)[C@@H]1CCCN1C(=O)[C@H](C)NC(=O)CNC(=O)[C@H](CO)NC(=O)[C@H](CO)NC(=O)[C@@H]1CCCN1C(=O)CNC(=O)CNC(=O)[C@H](CCC(=O)O)NC(=O)[C@@H](NC(=O)[C@H](CC(C)C)NC(=O)[C@](C)(Cc1ccc(O)cc1)NC(=O)[C@@H](CCC(=O)O)NC(=O)[C@@H](NC(=O)[C@](C)(Cc1ccccc1)NC(=O)[C@H](CCC(=O)O)NC(=O)C(C)(C)NC(=O)[C@H](CCC(N)=O)NC(=O)[C@H](C)NC(=O)[C@H](CCCCNC(=O)COCCOCCNC(=O)COCCOCCNC(=O)CC[C@H](NC(=O)CCCCCCCCCCC)C(=O)O)NC(=O)[C@H](CCCN)NC(=O)[C@H](CC(=O)O)NC(=O)[C@H](CC(C)C)NC(=O)[C@](C)(CC(C)C)NC(=O)[C@@H](NC(=O)C(C)(C)NC(=O)[C@H](Cc1ccncc1)NC(=O)[C@H](CC(=O)O)NC(=O)[C@H](CO)NC(=O)[C@@H](NC(=O)[C@](C)(Cc1ccccc1F)NC(=O)[C@@H](NC(=O)CNC(=O)[C@H](CCC(=O)O)NC(=O)C(C)(C)NC(=O)[C@@H](N)Cc1ccc(O)cc1)[C@@H](C)O)[C@@H](C)O)[C@@H](C)CC)[C@@H](C)CC)[C@@H](C)CC)C(N)=O)C(=O)O [Example 431] (H-Y[Aib]EGT[αMePhe(2-F)]TSD[4Pal][Aib]I[αMeL]LD[Orn]K([AEEA-AEEA-γGlu-Lauroyl])AQ[Aib]E[αMeF]I[dE][αMeY]LIEGGPSSGAPPPSK([AEEA-AEEA-γGlu-Lauroyl])-NH2) | 98% | 0.0097 nM | – | > 9950 nM | > 9950 nM | 91.6% | – | 0.134 nM | – | –
3 | CCCCCCCCCCCC(=O)N[C@@H](CCC(=O)NCCOCCOCC(=O)NCCOCCOCC(=O)NCCOCCOCC(=O)NCCCC[C@H](NC(=O)[C@H](CCCN)NC(=O)[C@H](CC(=O)O)NC(=O)[C@H](CC(C)C)NC(=O)[C@](C)(CC(C)C)NC(=O)[C@@H](NC(=O)C(C)(C)NC(=O)[C@H](Cc1ccncc1)NC(=O)[C@H](CC(=O)O)NC(=O)[C@H](CO)NC(=O)[C@@H](NC(=O)[C@](C)(Cc1ccccc1F)NC(=O)[C@@H](NC(=O)CNC(=O)[C@H](CCC(=O)O)NC(=O)C(C)(C)NC(=O)[C@@H](N)Cc1ccc(O)cc1)[C@@H](C)O)[C@@H](C)O)[C@@H](C)CC)C(=O)N[C@@H](C)C(=O)N[C@@H](CCC(N)=O)C(=O)NC(C)(C)C(=O)N[C@@H](CCCCNC(=O)COCCOCCNC(=O)COCCOCCNC(=O)COCCOCCNC(=O)CC[C@H](NC(=O)CCCCCCCCCCC)C(=O)O)C(=O)N[C@@](C)(Cc1ccccc1)C(=O)N[C@H](C(=O)N[C@H](CCC(=O)O)C(=O)N[C@@](C)(Cc1ccc(O)cc1)C(=O)N[C@@H](CC(C)C)C(=O)N[C@H](C(=O)N[C@@H](CCC(=O)O)C(=O)NCC(=O)NCC(=O)N1CCC[C@H]1C(=O)N[C@@H](CO)C(=O)N[C@@H](CO)C(=O)NCC(=O)N[C@@H](C)C(=O)N1CCC[C@H]1C(=O)N1CCC[C@H]1C(=O)N1CCC[C@H]1C(=O)N[C@@H](CO)C(N)=O)[C@@H](C)CC)[C@@H](C)CC)C(=O)O [Example 437] (H-Y[Aib]EGT[αMePhe(2-F)]TSD[4Pal][Aib]I[αMeL]LD[Orn]K([AEEA-AEEA-AEEA-γGlu-Lauroyl])AQ[Aib]K([AEEA-AEEA-AEEA-γGlu-Lauroyl])[αMeF]I[dE][αMeY]LIEGGPSSGAPPPS-NH2) | 96.5% | 0.0146 nM | – | > 9950 nM | > 9950 nM | 91.2% | 89.2% | 0.249 nM | 94.8% | –
4 | CCCCCCCCCCCC(=O)N[C@@H](CCC(=O)NCCOCCOCC(=O)NCCOCCOCC(=O)NCCOCCOCC(=O)NCCCC[C@H](NC(=O)[C@H](CCCN)NC(=O)[C@H](CC(=O)O)NC(=O)[C@H](CC(C)C)NC(=O)[C@](C)(CC(C)C)NC(=O)[C@@H](NC(=O)C(C)(C)NC(=O)[C@H](Cc1ccncc1)NC(=O)[C@H](CC(=O)O)NC(=O)[C@H](CO)NC(=O)[C@@H](NC(=O)[C@](C)(Cc1ccccc1F)NC(=O)[C@@H](NC(=O)CNC(=O)[C@H](CCC(=O)O)NC(=O)C(C)(C)NC(=O)[C@@H](N)Cc1ccc(O)cc1)[C@@H](C)O)[C@@H](C)O)[C@@H](C)CC)C(=O)N[C@@H](C)C(=O)N[C@@H](CCC(N)=O)C(=O)NC(C)(C)C(=O)N[C@@H](CCC(=O)O)C(=O)N[C@@](C)(Cc1ccccc1)C(=O)N[C@H](C(=O)N[C@H](CCC(=O)O)C(=O)N[C@@](C)(Cc1ccc(O)cc1)C(=O)N[C@@H](CC(C)C)C(=O)N[C@H](C(=O)N[C@@H](CCCCNC(=O)COCCOCCNC(=O)COCCOCCNC(=O)COCCOCCNC(=O)CC[C@H](NC(=O)CCCCCCCCCCC)C(=O)O)C(=O)NCC(=O)NCC(=O)N1CCC[C@H]1C(=O)N[C@@H](CO)C(=O)N[C@@H](CO)C(=O)NCC(=O)N[C@@H](C)C(=O)N1CCC[C@H]1C(=O)N1CCC[C@H]1C(=O)N1CCC[C@H]1C(=O)N[C@@H](CO)C(N)=O)[C@@H](C)CC)[C@@H](C)CC)C(=O)O [Example 438] (H-Y[Aib]EGT[αMePhe(2-F)]TSD[4Pal][Aib]I[αMeL]LD[Orn]K([AEEA-AEEA-AEEA-γGlu-Lauroyl])AQ[Aib]E[αMeF]I[dE][αMeY]LIK([AEEA-AEEA-AEEA-γGlu-Lauroyl])GGPSSGAPPPS-NH2) | 90.8% | 0.0157 nM | – | > 9950 nM | > 9950 nM | 88.7% | 88.5% | 0.471 nM | 98.9% | 28 nM
